≈ marks a conversion by molar mass, not a printed value.
Legend:
Assay type in all cases: cell-based
[1] = tested on: Botrtyis cinerea (Bc); assay: In vitro pathogen growth inhibition assay, Bc; conditions: 48 h, ≥90% inhibition; 48 hours vs 2% DMSO control; read-out: Compound Concentration (ppm) sufficient for ≥90% inhibition of growth, Bc
In short: (§1)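 Value reported is the compound concentration reaching ≥90% growth inhibition, from OD readings at 24 and 48 h after blank subtraction, confirmed visually. Inoculum was spores diluted in 17% V8 medium, except Rs, using 1.5 mm mycelial plugs in ¼ PDB; actual compound concentration corrected via OD600.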

[2] = tested on: Collectotrichum graminicola (Cg); assay: In vitro pathogen growth inhibition assay, Cg; conditions: 48 h, ≥90% inhibition; 48 hours vs 2% DMSO control; read-out: Compound Concentration (ppm) sufficient for ≥90% inhibition of growth, Cg
In short: as §1

[3] = tested on: Diplodia maydis (Dm); assay: In vitro pathogen growth inhibition assay, Dm; conditions: Stenocarpella maydis, 48 h, ≥90% inhibition; 48 hours vs 2% DMSO control; read-out: Compound Concentration (ppm) sufficient for ≥90% inhibition of growth, Dm
In short: (§2)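 Spores in 17% V8 liquid medium, or 1.5 mm Rs mycelial plugs in ¼ PDB, incubated with compound; final concentration checked by OD600 for precipitation. OD readings at 24 and 48 h, blank-subtracted, plus visual ratings; value is concentration giving ≥90% growth inhibition.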

[4] = tested on: Fusarium moniliforme (Fm); assay: In vitro pathogen growth inhibition assay, Fm; conditions: Fusarium verticillioides; ≥90% inhibition; 48 hours vs 2% DMSO control; read-out: Compound Concentration (ppm) sufficient for ≥90% inhibition of growth, Fm
In short: as §1

[5] = tested on: Fusarium virguliforme (Fv); assay: In vitro pathogen growth inhibition assay, Fv; conditions: ≥90% inhibition, 48 hours vs 2% DMSO control, read-out: Compound Concentration (ppm) sufficient for ≥90% inhibition of growth, Fv
In short: as §2

[6] = tested on: Phytophthora capsici (Pc); assay: In vitro pathogen growth inhibition assay, Pc; conditions: 48 h, ≥90% inhibition, 48 hours vs 2% DMSO control, read-out: Compound Concentration (ppm) sufficient for ≥90% inhibition of growth, Pc
In short: as §2

[7] = tested on: Rhizoctonia solani (Rs); assay: In vitro pathogen growth inhibition assay, Rs (mycelial plugs); conditions: Rhizoctonia solani, 48 h, ≥90% inhibition; mycelial plugs; 48 hours vs 2% DMSO control; read-out: Compound Concentration (ppm) sufficient for ≥90% inhibition of growth, Rs
In short: as §2

[8] = tested on: Septoria tritici (St); assay: In vitro pathogen growth inhibition assay, St; conditions: Zymoseptoria tritici, 48 h, ≥90% inhibition; 48 hours vs 2% DMSO control; read-out: Compound Concentration (ppm) sufficient for ≥90% inhibition of growth, St
In short: as §1

Row | IC90 [1] [µg/mL] | IC90 [2] [µg/mL] | IC90 [3] [µg/mL] | IC90 [4] [µg/mL] | IC90 [5] [µg/mL] | IC90 [6] [µg/mL] | IC90 [7] [µg/mL] | IC90 [8] [µg/mL] | SMILES
1 | 2 (≈ 3.25 µM) | 10 (≈ 16.2 µM) | 50 (≈ 81.2 µM) | 0.4 (≈ 0.65 µM) | 0.4 (≈ 0.65 µM) | ≥ 50 | 2 (≈ 3.25 µM) | > 50 | COc1ccc(F)cc1[C@H](Cn1c(=O)n(C(C)(C)C(=O)NC(C)C)c(=O)c2c(C)c(-n3nccn3)sc21)OCCC(N)=O [Compound I-142]
2 | 2 (≈ 3.41 µM) | 10 (≈ 17.1 µM) | 50 (≈ 85.4 µM) | 2 (≈ 3.41 µM) | 50 (≈ 85.4 µM) | > 50 | 50 (≈ 85.4 µM) | > 50 | COc1ccc(F)cc1[C@H](Cn1c(=O)n(C(C)(C)C(N)=O)c(=O)c2c(C)c(-n3cccn3)sc21)OC1CCOCC1 [Compound I-146]
3 | 2 (≈ 3.34 µM) | 50 (≈ 83.4 µM) | ≥ 10 | 2 (≈ 3.34 µM) | 10 (≈ 16.7 µM) | > 50 | 10 (≈ 16.7 µM) | > 50 | COc1ccc(F)cc1[C@H](Cn1c(=O)n(C(C)(C)C(N)=O)c(=O)c2c(C)c(-n3cccn3)sc21)O[C@H]1CC[C@@H](O)CC1 [Compound I-150]
4 | 10 (≈ 16 µM) | 50 (≈ 80 µM) | 50 (≈ 80 µM) | 2 (≈ 3.2 µM) | 10 (≈ 16 µM) | > 50 | 10 (≈ 16 µM) | > 50 | COc1ccccc1[C@H](Cn1c(=O)n(C(C)(C)C(=O)N2CC(O)C2)c(=O)c2c(C)c(-n3nccn3)sc21)OC1CCOCC1 [Compound I-156]
5 | 10 (≈ 16.4 µM) | ≥ 10 | 10 (≈ 16.4 µM) | 2 (≈ 3.28 µM) | ≥ 10 | > 50 | 50 (≈ 82 µM) | ≥ 50 | COc1ccccc1[C@H](Cn1c(=O)n(C(C)(C)C(=O)NC(C)C)c(=O)c2c(C)c(-n3cccn3)sc21)OC1CCOCC1 [Compound I-157]
6 | 10 (≈ 16.7 µM) | > 50 | 50 (≈ 83.4 µM) | 2 (≈ 3.34 µM) | > 50 | 50 (≈ 83.4 µM) | 10 (≈ 16.7 µM) | > 50 | COc1ccc(F)cc1[C@H](Cn1c(=O)n(C(C)(C)C(=O)O)c(=O)c2c(C)c(-n3nccn3)sc21)OC1CCC(=O)CC1 [Compound I-158]
7 | 10 (≈ 16.7 µM) | ≥ 10 | ≥ 50 | 2 (≈ 3.34 µM) | 2 (≈ 3.34 µM) | > 50 | ≥ 10 | > 50 | COc1ccc(F)cc1[C@H](Cn1c(=O)n(C(C)(C)C(=O)N2CCCC2)c(=O)c2c(C)c(-n3cccn3)sc21)OCCO [Compound I-159]
8 | 2 (≈ 3.43 µM) | ≥ 10 | 10 (≈ 17.1 µM) | 2 (≈ 3.43 µM) | 2 (≈ 3.43 µM) | > 50 | ≥ 50 | > 50 | COc1ccc(F)cc1[C@H](Cn1c(=O)n(C(C)(C)C(=O)NCC#N)c(=O)c2c(C)c(-n3nccn3)sc21)OC(C)C [Compound I-160]
9 | 10 (≈ 16.3 µM) | 10 (≈ 16.3 µM) | 50 (≈ 81.5 µM) | 2 (≈ 3.26 µM) | 10 (≈ 16.3 µM) | > 50 | ≥ 2 | > 50 | COc1ccc(F)cc1[C@H](Cn1c(=O)n(C(C)(C)C(=O)N2CCCC2)c(=O)c2c(C)c(-n3cccn3)sc21)OC[C@H](C)O [Compound I-161]
10 | 10 (≈ 15.7 µM) | 2 (≈ 3.14 µM) | 10 (≈ 15.7 µM) | 2 (≈ 3.14 µM) | 10 (≈ 15.7 µM) | > 50 | 2 (≈ 3.14 µM) | > 50 | COc1ccc(F)cc1[C@H](Cn1c(=O)n(C(C)(C)C(=O)N2CC=CC2)c(=O)c2c(C)c(-n3cccn3)sc21)OC1CCOCC1 [Compound I-162]

— patent US10941157B2, “Pesticidal compositions and uses thereof” (Gilead Apollo, LLC, priority 2015, dated 2021)
